Measurements reported in patent US10125126B2, “N-cycloalkyl-N-[(heterocyclylphenyl)methylene]-(thio)carboxamide derivatives” (BAYER CROPSCIENCE AG, priority 2012, dated 2018).

Key:
[1] = log P by HPLC on a reversed-phase column (C 18), EEC Directive 79/831 Annex V.A8; type: physicochemical; details: HPLC on reversed-phase column (C 18), 40° C., 0.1% aqueous formic acid and acetonitrile, linear gradient 10% to 90% acetonitrile
Summary of the method: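 Gradient elution (10% to 90% acetonitrile, 0.1% aqueous formic acid) at 40° C; log P interpolated linearly between flanking alkan-2-one standards (3 to 16 carbons).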

Pyrenophora teres = experiment: In vivo preventive test on Pyrenophora teres (barley); details: barley plants, 14 days after contamination
Description: In Vivo Preventive Test on Pyrenophora teres (Barley) […] Barley plants (“Plaisant” variety), sown in starter cups on a 50/50 peat soil pozzolana substrate and grown at 22° C., are treated at the 1 leaf stage (10 cm height) by spraying with the active ingredient prepared as described above. Plants, used as controls, are treated with the mixture of acetone/tween/DMSO/water not containing the active material. After 24 hours, the plants are contaminated by spraying the leaves with an aqueous suspension of Pyrenophora teres spores (12 000 spores per mL). The spores are collected from a 12-day-old culture. […] Grading (% of efficacy) is carried out 14 days after the contamination, in comparison with the control plants.

Puccinia recondita = experiment: In vivo preventive test on Puccinia recondita (brown rust on wheat); details: wheat plants, 12 days after contamination
Description: In Vivo Preventive Test on Puccinia recondita (Brown Rust on Wheat) […] Wheat plants (“Scipion” variety), sown in starter cups on a 50/50 peat soil pozzolana substrate and grown at 22° C., are treated at the 1 leaf stage (10 cm height) by spraying with the active ingredient prepared as described above. Plants, used as controls, are treated with the mixture of acetone/tween/DMSO/water not containing the active material. After 24 hours, the plants are contaminated by spraying the leaves with an aqueous suspension of Puccinia recondita spores (100 000 spores per mL). The spores are collected from an infected plant and are suspended in water containing 2.5 mL/L of Tween 80 at 10%. […] Grading (% of efficacy) is carried out 12 days after the contamination, in comparison with the control plants.

Septoria tritici = experiment: In vivo preventive test on Septoria tritici (wheat); details: wheat plants, 24 days after contamination
Description: In Vivo Preventive Test on Septoria tritici (Wheat) […] Wheat plants (“Scipion” variety), sown in starter cups on a 50/50 peat soil pozzolana substrate and grown at 22° C., are treated at the 1 leaf stage (10 cm height) by spraying with the active ingredient prepared as described above. Plants, used as controls, are treated with the mixture of acetone/tween/DMSO/water not containing the active material. After 24 hours, the plants are contaminated by spraying the leaves with an aqueous suspension of cryopreserved Septoria tritici spores (500 000 spores per mL). The contaminated wheat plants are incubated for 72 hours at 18° C. and at 100% relative humidity, and then for 21 days at 90% relative humidity. Grading (% of efficacy) is carried out 24 days after the contamination, in comparison with the control plants.

Sphaerotheca fuliginea = experiment: In vivo preventive test on Sphaerotheca fuliginea (powdery mildew on cucurbits); details: gherkin plants, 12 days after contamination
Description: In Vivo Preventive Test on Sphaerotheca fuliginea (Powdery Mildew on Cucurbits) […] Gherkin plants (“Vert petit de Paris” variety), sown in starter cups on a 50/50 peat soil-pozzolana substrate and grown at 24° C., are treated at the Z11 cotyledon stage by spraying with the active ingredient prepared as described above. Plants, used as controls, are treated with the mixture of acetone/tween/DMSO/water not containing the active material. After 24 hours, the plants are contaminated by spraying the cotyledons with an aqueous suspension of Sphaerotheca fuliginea spores (100 000 spores per mL). The spores are collected from infected plants. […] Grading (% of efficacy) is carried out 12 days after the contamination, in comparison with the control plants.

Uromyces appendiculatus = experiment: In vivo preventive test on Uromyces appendiculatus (bean rust); details: bean plants, 11 days after contamination
Description: In Vivo Preventive Test on Uromyces appendiculatus (Bean Rust) […] Bean plants (“Saxa” variety), sown in starter cups on a 50/50 peat soil pozzolana substrate and grown at 24° C., are treated at the 2 leaf stage (9 cm height) by spraying with the active ingredient prepared as described above. Plants, used as controls, are treated with the mixture of acetone/tween/DMSO/water not containing the active material. After 24 hours, the plants are contaminated by spraying the leaves with an aqueous suspension of Uromyces appendiculatus spores (150 000 spores per mL). The spores are collected from infected plants and are suspended in water containing 2.5 mL/L of Tween 80 at 10%. […] Grading (% of efficacy) is carried out 11 days after the contamination, in comparison with the control plants.

Botrytis cinerea = experiment: In vivo preventive test on Botrytis cinerea (grey mould); details: gherkin plants, 4 to 5 days after contamination
Description: In Vivo Preventive Test on Botrytis cinerea (Grey Mould) […] Gherkin plants (“Vert petit de Paris” variety), sown in starter cups on a 50/50 peat soil pozzolana substrate and grown at 24° C., are treated at the Z11 cotyledon stage by spraying with the active ingredient prepared as described above. Plants, used as controls, are treated with the mixture of acetone/tween/DMSO/water not containing the active material. After 24 hours, the plants are contaminated by spraying the cotyledons with an aqueous suspension of cryopreserved Botrytis cinerea spores (50 000 spores per mL). The spores are suspended in a nutrient solution composed of 10 g/L of PDB, 50 g/L of D-Fructose, 2 g/L of NH4NO3 and 1 g/L of KH2PO4. The contaminated gherkin plants are incubated at 17° C. and at 90% relative humidity. Grading (% of efficacy) is carried out 4 to 5 days after the contamination, in comparison with the control plants.

Compound	logP [1]	Efficacy (Pyrenophora teres; 500 ppm of active ingredient) [%]	Efficacy (Puccinia recondita; 500 ppm of active ingredient) [%]	Efficacy (Septoria tritici; 500 ppm of active ingredient) [%]	Efficacy (Sphaerotheca fuliginea; 500 ppm of active ingredient) [%]	Efficacy (Uromyces appendiculatus; 500 ppm of active ingredient) [%]	Efficacy (Pyrenophora teres; 100 ppm of active ingredient) [%]	Efficacy (Septoria tritici; 100 ppm of active ingredient) [%]	Efficacy (Puccinia recondita; 100 ppm of active ingredient) [%]	Efficacy (Sphaerotheca fuliginea; 100 ppm of active ingredient) [%]	Efficacy (Uromyces appendiculatus; 100 ppm of active ingredient) [%]	Efficacy (Botrytis cinerea; 500 ppm of active ingredient) [%]	Efficacy (Botrytis cinerea; 100 ppm of active ingredient) [%]
CC1CC1N(Cc1ccccc1-c1ccsc1)C(=O)c1c(C(F)F)nn(C)c1F (stereo not drawn) [I.86]	3.83	79	98	79	98	97	–	–	–	–	–	–	–
Cc1ccc(-c2cnn(C)c2)c(CN(C(=O)c2c(C(F)F)nn(C)c2Cl)C2CC2)c1 [I.57]	2.71	–	–	–	–	–	79	–	–	–	–	–	–
Cn1ccc(-c2ccc(F)cc2CN(C(=O)c2c(C(F)F)nn(C)c2F)C2CC2)c1 [I.47]	3.37	71	–	–	94	–	–	–	–	–	–	–	–
Cn1cc(C(=O)N(Cc2cc(-c3ccsc3)ccc2Cl)C2CC2)c(C(F)F)n1 [I.93]	3.59	–	–	–	–	–	88	86	–	–	–	–	–
Cn1nc(C(F)F)c(C(=O)N(Cc2cc(F)ccc2C2(C)CO2)C2CC2)c1F (stereo not drawn) [I.7]	2.86	–	–	–	–	–	97	100	100	94	100	–	–
Cn1nc(C(F)F)c(C(=O)N(Cc2cc(Cl)ccc2-c2ccsc2)C2CC2)c1F [I.66]	3.99	–	94	–	95	100	–	–	–	–	–	91	–
COc1ccsc1-c1ccc(Cl)cc1CN(C(=O)c1c(C(F)F)nn(C)c1F)C1CC1 [I.121]	3.99	86	94	80	100	–	–	–	–	–	–	–	–
Cn1nc(C(F)F)c(C(=O)N(Cc2cc(-c3ccco3)ccc2Cl)C2CC2)c1F [I.34]	3.81	–	–	–	–	–	81	–	–	–	–	–	99
Cc1nn(C)c(C)c1-c1ccccc1CN(C(=O)c1c(C(F)F)nn(C)c1F)C1CC1 [I.114]	2.52	79	72	100	94	–	–	–	–	–	–	–	–
Cn1nc(C(F)F)c(C(=O)N(Cc2ccc(Cl)cc2-c2csc3ccccc23)C2CC2)c1F [I.159]	4.92	–	–	88	100	84	75	–	–	–	–	100	–
Cn1nc(C(F)F)c(C(=O)N(Cc2ccccc2-c2ccsc2)C2CC2)c1F [I.67]	3.55	79	100	97	100	100	–	–	–	–	–	–	–
Cn1nc(C(F)F)c(C(=O)N(Cc2ccc(F)cc2-c2csc3ccccc23)C2CC2)c1F [I.158]	4.44	–	81	98	100	91	–	–	–	–	–	100	–
Cn1nc(C(F)F)c(C(=O)N(Cc2cc(-c3ccc(Cl)s3)ccc2Cl)C2CC2)c1Cl [I.145]	5.06	–	88	94	–	100	–	–	–	–	–	–	100
COc1ccsc1-c1cc(F)ccc1CN(C(=O)c1c(C(F)F)nn(C)c1F)C1CC1 [I.122]	3.70	–	98	100	100	100	–	–	–	–	–	100	–
Cn1nc(C(F)F)c(C(=S)N(Cc2ccccc2-c2cccs2)C2CC2)c1F [I.75]	4.29	–	94	86	90	100	–	–	–	–	–	100	–
Cn1nc(C(F)F)c(C(=O)N(Cc2cc(F)ccc2-c2ccoc2)C2CC2)c1F [I.27]	3.33	93	100	80	100	100	–	–	–	–	–	–	–
Cn1nc(C(F)F)c(C(=O)N(Cc2cc(-c3ccsc3)ccc2Cl)C2CC2)c1F [I.95]	3.96	–	–	–	–	–	88	–	–	98	–	–	–
Cn1nc(C(F)F)c(C(=O)N(Cc2cc(-c3cccs3)ccc2Cl)C2CC2)c1F [I.83]	4.06	–	–	–	–	–	86	–	75	98	80	–	–
Cn1nc(C(F)F)c(C(=O)N(Cc2ccccc2-c2ccsc2Cl)C2CC2)c1F [I.138]	3.92	79	94	100	100	100	–	–	–	–	–	100	–
COc1ccsc1-c1ccccc1CN(C(=O)c1c(C(F)F)nn(C)c1F)C1CC1 [I.120]	3.52	79	100	80	100	100	–	–	–	–	–	–	–
Cn1cc(C(=O)N(Cc2cc(-c3ccco3)ccc2Cl)C2CC2)c(C(F)F)n1 [I.36]	3.44	–	–	–	–	–	71	–	–	–	–	–	–
COc1ccsc1-c1cc(Cl)ccc1CN(C(=O)c1c(C(F)F)nn(C)c1F)C1CC1 [I.123]	4.14	–	94	94	100	99	–	–	–	–	–	100	–
Cc1ccc(C2(C)CO2)c(CN(C(=O)c2c(C(F)F)nn(C)c2F)C2CC2)c1 (stereo not drawn) [I.5]	3.04	93	98	97	100	–	–	–	–	–	–	–	–
Cn1nc(C(F)F)c(C(=S)N(Cc2ccccc2-c2ccsc2)C2CC2)c1F [I.73]	4.21	71	100	–	100	100	–	–	–	–	–	100	–
Cn1cc(C(=O)N(Cc2cc(-c3ccc(Cl)s3)ccc2Cl)C2CC2)c(C(F)F)n1 [I.144]	4.41	–	75	100	–	94	–	–	–	–	–	98	–
Cc1ccc(-c2coc3ccccc23)c(CN(C(=O)c2c(C(F)F)nn(C)c2F)C2CC2)c1 [I.134]	4.32	–	–	–	–	–	71	79	–	90	77	–	–
